The record followed here is ChEMBL document CHEMBL1130772, “New nonsteroidal androgen receptor modulators based on 4-(trifluoromethyl)-2(1H)-pyrrolidino[3,2-g] quinolinone” (Bioorg Med Chem Lett, 1998).

Type in all cases: functional, cell-based
The target of one test is T1, Glucocorticoid receptor (Homo sapiens, UniProt P04150).
T1 sequence (P04150 whole entry): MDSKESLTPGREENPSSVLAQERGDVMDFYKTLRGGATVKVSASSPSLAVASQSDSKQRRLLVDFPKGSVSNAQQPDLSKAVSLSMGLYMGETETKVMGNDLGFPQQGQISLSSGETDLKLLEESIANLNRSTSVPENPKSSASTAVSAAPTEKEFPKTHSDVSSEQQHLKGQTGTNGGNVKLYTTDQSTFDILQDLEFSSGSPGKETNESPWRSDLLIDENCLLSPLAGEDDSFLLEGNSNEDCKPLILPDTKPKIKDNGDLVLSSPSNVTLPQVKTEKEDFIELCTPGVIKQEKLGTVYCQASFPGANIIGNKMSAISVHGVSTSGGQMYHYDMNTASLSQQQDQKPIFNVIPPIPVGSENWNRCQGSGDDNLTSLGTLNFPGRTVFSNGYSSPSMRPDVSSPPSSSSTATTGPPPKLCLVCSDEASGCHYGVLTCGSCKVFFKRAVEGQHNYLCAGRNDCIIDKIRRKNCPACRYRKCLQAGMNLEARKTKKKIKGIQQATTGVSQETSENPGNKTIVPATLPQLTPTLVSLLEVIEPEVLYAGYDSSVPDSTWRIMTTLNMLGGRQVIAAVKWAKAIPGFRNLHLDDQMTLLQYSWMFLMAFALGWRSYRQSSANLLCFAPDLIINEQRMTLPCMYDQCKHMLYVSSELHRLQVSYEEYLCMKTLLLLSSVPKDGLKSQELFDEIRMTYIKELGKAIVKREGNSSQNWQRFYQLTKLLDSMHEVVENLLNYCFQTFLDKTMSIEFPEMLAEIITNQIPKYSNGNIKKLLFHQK
Put plainly: (§1) Antagonistic activity against Glucocorticoid receptor in co-transfected CV-1 cell.

Test [1] deals with T2, Glucocorticoid receptor (Homo sapiens) (UniProt P04150).
T2 sequence (whole entry): T1 sequence (P04150 whole entry)
The description is as §1.

Test [2] deals with T3, Mineralocorticoid receptor (Homo sapiens) (UniProt P08235).
T3 sequence (whole entry): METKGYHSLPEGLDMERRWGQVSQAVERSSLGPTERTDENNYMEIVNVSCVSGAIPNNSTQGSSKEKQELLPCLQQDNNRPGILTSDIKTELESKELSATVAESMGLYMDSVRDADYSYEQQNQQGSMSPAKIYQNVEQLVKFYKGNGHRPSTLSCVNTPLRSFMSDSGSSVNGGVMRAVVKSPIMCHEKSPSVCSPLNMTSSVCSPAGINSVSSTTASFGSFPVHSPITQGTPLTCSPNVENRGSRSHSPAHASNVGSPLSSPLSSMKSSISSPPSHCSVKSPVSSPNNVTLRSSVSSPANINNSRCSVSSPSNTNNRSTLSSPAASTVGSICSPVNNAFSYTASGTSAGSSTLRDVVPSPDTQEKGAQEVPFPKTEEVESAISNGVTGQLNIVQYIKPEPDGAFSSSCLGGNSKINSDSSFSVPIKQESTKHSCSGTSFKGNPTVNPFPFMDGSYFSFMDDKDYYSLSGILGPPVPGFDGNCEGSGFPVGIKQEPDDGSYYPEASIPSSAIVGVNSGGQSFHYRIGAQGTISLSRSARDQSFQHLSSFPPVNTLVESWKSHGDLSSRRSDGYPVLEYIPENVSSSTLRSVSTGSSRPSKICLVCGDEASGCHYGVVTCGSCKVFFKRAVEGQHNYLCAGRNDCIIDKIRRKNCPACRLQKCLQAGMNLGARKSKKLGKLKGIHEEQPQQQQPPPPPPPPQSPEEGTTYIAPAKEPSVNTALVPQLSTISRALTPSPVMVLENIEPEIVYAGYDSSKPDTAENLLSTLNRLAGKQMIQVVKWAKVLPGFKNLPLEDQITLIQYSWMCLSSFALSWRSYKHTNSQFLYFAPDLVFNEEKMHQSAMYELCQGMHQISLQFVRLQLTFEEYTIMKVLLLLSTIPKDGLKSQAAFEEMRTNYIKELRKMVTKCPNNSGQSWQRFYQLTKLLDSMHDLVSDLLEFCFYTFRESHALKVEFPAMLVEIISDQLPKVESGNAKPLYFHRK
Put plainly: Antagonistic activity against hMR in co-transfected CV-1 cell.

Test [3] concerns the target T4, Progesterone receptor (Homo sapiens) (UniProt P06401).
T4 sequence (whole entry): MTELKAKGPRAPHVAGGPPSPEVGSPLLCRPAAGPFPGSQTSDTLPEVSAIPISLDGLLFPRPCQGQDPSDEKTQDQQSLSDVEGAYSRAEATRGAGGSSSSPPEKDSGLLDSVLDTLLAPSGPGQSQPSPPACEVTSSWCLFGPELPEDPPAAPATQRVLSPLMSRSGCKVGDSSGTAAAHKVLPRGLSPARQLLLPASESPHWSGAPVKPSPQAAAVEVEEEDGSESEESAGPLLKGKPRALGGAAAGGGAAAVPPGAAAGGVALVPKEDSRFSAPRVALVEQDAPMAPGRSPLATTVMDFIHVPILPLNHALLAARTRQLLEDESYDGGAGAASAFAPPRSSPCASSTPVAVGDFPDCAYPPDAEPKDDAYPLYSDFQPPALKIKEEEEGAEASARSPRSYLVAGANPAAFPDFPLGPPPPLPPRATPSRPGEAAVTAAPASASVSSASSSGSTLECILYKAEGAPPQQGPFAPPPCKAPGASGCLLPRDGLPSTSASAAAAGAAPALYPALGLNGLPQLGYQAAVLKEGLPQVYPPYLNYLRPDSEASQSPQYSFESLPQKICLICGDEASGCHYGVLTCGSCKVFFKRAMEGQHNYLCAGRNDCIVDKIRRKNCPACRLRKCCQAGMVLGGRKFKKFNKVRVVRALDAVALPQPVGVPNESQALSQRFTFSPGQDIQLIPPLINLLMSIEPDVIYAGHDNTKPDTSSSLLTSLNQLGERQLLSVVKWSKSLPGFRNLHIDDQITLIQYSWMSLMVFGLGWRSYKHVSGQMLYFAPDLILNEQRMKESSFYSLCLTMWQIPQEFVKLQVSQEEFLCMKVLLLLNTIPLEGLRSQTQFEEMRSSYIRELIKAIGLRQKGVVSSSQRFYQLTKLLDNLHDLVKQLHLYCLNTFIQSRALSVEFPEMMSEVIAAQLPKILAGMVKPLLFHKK
Put plainly: (§2) Antagonistic activity against hPR in co-transfected CV-1 cell.

In another test the target is T5, Progesterone receptor (Homo sapiens, UniProt P06401).
T5 sequence (P06401 whole entry): T4 sequence (whole entry)
The test is described as §2.

For orientation: IC50 means the concentration at which inhibition is half-maximal. A lower IC50 goes with higher potency. As to `CN1c2cc3c(cc2[C@H]2CCCC[C@H]21)c(C(F)(F)F)cc(=O)n3C`, the half-maximal inhibitory concentration (IC50) on Glucocorticoid receptor was above 10000 nM; at Progesterone receptor, 1000 nM. Also, the Efficacy in test [1] was below 20%; in test [2], below 20%; in test [3], 98%.

As for `C[C@H]1CC[C@H]2Nc3cc4c(cc3[C@H]2C1)c(C(F)(F)F)cc(=O)n4C`, the IC50 is above 10000 nM against Glucocorticoid receptor and 380 nM against Progesterone receptor. For the same compound, the Efficacy was below 20% in test [1], below 20% in test [2] and 97% in test [3].

For the compound `CC1(C)CCC[C@]2(C)c3cc4c(C(F)(F)F)cc(O)nc4cc3N[C@H]12`, the half-inhibitory concentration (IC50) against Glucocorticoid receptor came to 1400 nM; against Progesterone receptor, 430 nM. The Efficacy in test [1] was 31%; in test [2], 77%; in test [3], 96%.
